Reference: patent publication US9963464B2, “Macrocyclic compounds” (Bayer Pharma Aktiengesellschaft, priority 2014, dated 2018)

What was measured:
MOLM-13 cells = experiment: Proliferation assay MOLM-13; assay type: cell-based; settings: Homo sapiens, 72-hour exposure, Cell Titre-Glo, read-out: Inhibition of MOLM-13 cell proliferation IC50
Description: (§1) Cultivated tumour cells (HeLa, human cervical tumour cells, ATCC CCL-2; NCI-H460, human non-small cell lung carcinoma cells, ATCC HTB-177; A2780, human ovarian carcinoma cells, ECACC #93112519; DU 145, hormone-independent human prostate carcinoma cells, ATCC HTB-81; HeLa-MaTu-ADR, multidrug-resistant human cervical carcinoma cells, EPO-GmbH Berlin; Caco-2, human colorectal carcinoma cells, ATCC HTB-37; B16F10, mouse melanoma cells, ATCC CRL-6475) were plated at a density of 5,000 cells/well (DU145, HeLa-MaTu-ADR), 3,000 cells/well (NCI-H460, HeLa), 2,500 cells/well (A2780), 1,500 cells/well (Caco-2), or 1,000 cells/well (B16F10) in a 96-well multititer plate in 200 μL of their respective growth medium supplemented 10% fetal calf serum. […] Cell proliferation was determined by staining the cells with crystal violet: the cells were fixed by adding 20 μl/measuring point of an 11% glutaric aldehyde solution for 15 minutes at room temperature. […] The extinction was determined by photometry at a wavelength of 595 nm. The change of cell number, in percent, was calculated by normalization of the measured values to the extinction values of the zero-point plate (=0%) and the extinction of the untreated (0 μm) cells (=100%). […] Cell viability was assessed after 72-hour exposure with the Cell Titre-Glo Luminescent Cell Viability Assay (Promega). […]

rat hepatocytes = experiment: In vitro metabolic stability in rat hepatocytes; assay type: in vitro ADME; settings: 1 μM
Description: 6. Investigation of In Vitro Metabolic Stability in Rat Hepatocytes
Hepatocytes from Han Wistar rats were isolated via a 2-step perfusion method. After perfusion, the liver was carefully removed from the rat: the liver capsule was opened and the hepatocytes were gently shaken out into a Petri dish with ice-cold Williams medium E (purchased from Sigma Aldrich Life Science, St Louis, Mo.). The resulting cell suspension was filtered through sterile gaze in 50 ml falcon tubes and centrifuged at 50×g for 3 min at room temperature. The cell pellet was resuspended in 30 ml WME and centrifuged through a Percoll® gradient for 2 times at 100×g. The hepatocytes were washed again with Williams' medium E (WME) and resuspended in medium containing 5% Fetal calf serum (FCS, purchased from Invitrogen, Auckland, NZ). Cell viability was determined by trypan blue exclusion.
For the metabolic stability assay liver cells were distributed in WME containing 5% FCS to glass vials at a density of 1.0×10^6 vital cells/ml. The test compound was added to a final concentration of 1 μM. During incubation, the hepatocyte suspensions were continuously shaken and aliquots were taken at 2, 8, 16, 30, 45 and 90 min, to which equal volumes of cold acetonitrile were immediately added. Samples were frozen at −20° C. over night, after subsequently centrifuged for 15 minutes at 3000 rpm and the supernatant was analyzed with an Agilent 1200 HPLC-system with LCMS/MS detection.
The half-life of a test compound was determined from the concentration-time plot. From the half-life the intrinsic clearances were calculated.

[1] = In vivo pharmacokinetics in rats; settings: male, Wistar, rat, plasma, iv, i.v. bolus dosing, read-out: t1/2: terminal half-life (converted)
Description: 7. In Vivo Pharmacokinetics in Rats
For in vivo pharmacokinetic experiments test compounds were administered to male Wistar rats intravenously at doses of 0.3 to 1 mg/kg formulated as solutions using either rat plasma or solubilizers such as PEG400 in well-tolerated amounts.
For pharmacokinetics after intravenous administration test compounds were given as i.v. bolus and blood samples were taken at 2 min, 8 min, 15 min, 30 min, 45 min, 1 h, 2 h, 4 h, 6 h, 8 h and 24 h after dosing. […] Blood was collected into Lithium-Heparin tubes (Monovetten®, Sarstedt) and centrifuged for 15 min at 3000 rpm. An aliquot of 100 μL from the supernatant (plasma) was taken and precipitated by addition of 400 μL ice cold acetonitrile and frozen at −20 OC over night. Samples were subsequently thawed and centrifuged at 3000 rpm, 4° C. for 20 minutes. Aliquots of the supernatants were taken for analytical testing using an Agilent 1200 HPLC-system with LCMS/MS detection. PK parameters were calculated by non-compartmental analysis using a PK calculation software.
PK parameters derived from concentration-time profiles after i.v.: CLplasma: Total plasma clearance of test compound (in L/kg/h); CLblood: Total blood clearance of test compound: CLplasma*Cp/Cb (in L/kg/h) with Cp/Cb being the ratio of concentrations in plasma and blood, AUCnorm: Area under the concentration-time curve from t=0 h to infinity (extrapolated) divided by the administered dose (in kg*h/L); t1/2: terminal half-life (in h).

A2780 cells = experiment: Proliferation assay A2780; assay type: cell-based; settings: Homo sapiens, A2780, 96 h; 4 days, crystal violet; read-out: Inhibition of A2780 cell proliferation IC50
Description: as §1

| SMILES | IC50 (MOLM-13 cells) [nM] | maximal calculated oral bioavailability (Fmax) based on stability data in rat hepatocytes (rat hepatocytes) [%] | half-life [1] [h] | IC50 (A2780 cells) [nM] |
| --- | --- | --- | --- | --- |
| CS(=N)(=O)Cc1cc2cc(c1)OCCCCOc1cc(F)ccc1-c1nc(ncc1F)N2 (racemic) [Example 1, (rac)-16,20-Difluoro-9-[(S-methylsulfonimidoyl)methyl]-2,3,4,5-tetrahydro-12H-13,17-(azeno)-11,7-(metheno)-1,6,12,14-benzodioxadiazacyclononadecine] | 4 | 69 | 2.2 |  |
| CS(=N)(=O)Cc1cc2nc(c1)OCCCOc1cc(F)ccc1-c1cc(ncc1F)N2 (racemic) [Example 5, (rac)-15,19-Difluoro-8-[(S-methylsulfonimidoyl)methyl]-3,4-dihydro-2H,11H-10,6-(azeno)-12,16-(metheno)-1,5,11,13-benzodioxadiazacyclooctadecine] | 2 | 62 | 7.2 |  |
| CS(=N)(=O)Cc1cc2cc(c1)OCCCOc1cc(F)ccc1-c1nc(ncc1F)N2 (racemic) [Example 15, (rac)-15,19-difluoro-8-[(S-methylsulfonimidoyl)methyl]-3,4-dihydro-2H,11H-12,16-(azeno)-10,6-(metheno)-1,5,11,13-benzodioxadiazacyclooctadecine] |  | 76 | 4.9 |  |
| CSCc1cc2nc(c1)OCCCCOc1cc(F)ccc1-c1cc(ncc1F)N2 [Example 12, 16,20-Difluoro-9-[(methylsulfanyl)methyl]-2,3,4,5-tetrahydro-12H-11,7-(azeno)-13,17-(metheno)-1,6,12,14-benzodioxadiazacyclononadecine] |  |  |  | 115 |
